Test results from PubChem BioAssay (NCI).
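How tested: cells in 96-well plates exposed to compound for 48 hours at five concentrations. TGI: total growth inhibition.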

Experiments:
Experiment in all cases: NCI tumour cell line growth inhibition, 48 h
[1] = tested on: MCF7 breast
[2] = tested on: RPMI-8226 leukemia
[3] = tested on: SF-295 CNS
[4] = tested on: ACHN renal
[5] = tested on: NCI-H522 lung
[6] = tested on: CAKI-1 renal
[7] = tested on: U251 CNS
[8] = tested on: SK-MEL-28 melanoma
[9] = tested on: OVCAR-8 ovarian
[10] = tested on: SK-MEL-2 melanoma
[11] = tested on: KM12 colon
[12] = tested on: UO-31 renal
[13] = tested on: OVCAR-3 ovarian
[14] = tested on: OVCAR-5 ovarian

| SMILES | TGI [1] | TGI [2] | TGI [3] | TGI [4] | TGI [5] | TGI [6] | TGI [7] | TGI [8] | TGI [9] | TGI [10] | TGI [11] | TGI [12] | TGI [13] | TGI [14] |
| --- | --- | --- | --- | --- | --- | --- | --- | --- | --- | --- | --- | --- | --- | --- |
| C/C(=C\c1csc(C)n1)[C@@H]1C[C@@H]2O[C@]2(C)CCC[C@H](C)[C@H](O)[C@@H](C)C(=O)C(C)(C)[C@@H](O)CC(=O)O1 (tested in a mixture with another compound) | > 1 µM | > 0.172 µM | 0.0369 µM | > 1 µM | 0.00766 µM | > 1 µM | > 1 µM | > 1 µM | > 0.33 µM | > 0.464 µM | > 0.44 µM | > 1 µM | 0.0839 µM | > 1 µM |
| O=c1oc2ccccc2c(O)c1C(c1ccc2ccccc2c1)c1c(O)c2ccccc2oc1=O | > 100 µM | > 100 µM | > 100 µM | 41.7 µM | 48.5 µM | 54.7 µM | 39.2 µM | 80.1 µM | 31.6 µM | > 100 µM | 40 µM | 35.4 µM | > 100 µM | 62 µM |
| [N-]=[N+]=Nc1cc(=O)n(-c2ccccc2)c(=O)n1-c1ccccc1 | > 100 µM | > 100 µM | > 100 µM | > 100 µM | > 100 µM | > 100 µM | > 100 µM | > 100 µM | > 100 µM | > 100 µM | > 100 µM | > 100 µM | > 100 µM | > 100 µM |
| COc1c(C(=O)O)cccc1-c1cccc(C(=O)NCCN(CCNC(=O)c2cccc(-c3cccc(C(=O)O)c3OC)c2OC)CCNC(=O)c2cccc(-c3cccc(C(=O)O)c3OC)c2OC)c1OC | > 100 µM | 65.2 µM | > 100 µM | > 100 µM | 75.8 µM | > 100 µM | > 100 µM | > 100 µM | > 100 µM | > 100 µM | > 100 µM | > 100 µM | 64.6 µM | > 100 µM |
| O=C(/C=C/c1c(O)c2ccccc2[nH]c1=O)CC(=O)C(=O)Nc1cccc(O)c1 | > 100 µM | > 100 µM | > 100 µM | > 100 µM | > 100 µM | > 100 µM | > 100 µM | > 100 µM | > 100 µM | > 100 µM | > 100 µM | > 100 µM | > 100 µM | > 100 µM |
| O=c1[nH]c2nccn2c(Cl)c1Br | > 100 µM | > 100 µM | > 100 µM | 70.1 µM | 29.8 µM | 40.7 µM | 34.4 µM | 36 µM | 39.3 µM | 16.3 µM | > 100 µM | > 100 µM | 35.7 µM | 49.1 µM |
| COc1ccc(-c2cc(=O)c3c(O)c(OC)c(O)cc3o2)cc1O | 40.9 µM | > 23.6 µM | > 100 µM | > 100 µM | 9.53 µM | > 73.2 µM | > 100 µM | > 100 µM | > 100 µM | > 43.5 µM | 18.6 µM | > 100 µM | > 100 µM | > 100 µM |
| CC1=C(C#N)C(=O)N(/N=C/c2ccc(Cl)cc2)C(=O)/C1=c1\o/c(=C2/C(=O)N(/N=C/c3ccc(Cl)cc3)C(=O)C(C#N)=C2C)c2nccnc12 | > 100 µM | > 100 µM | > 100 µM | > 100 µM | > 100 µM | > 100 µM | > 100 µM | > 100 µM | > 100 µM | > 100 µM | > 100 µM | > 100 µM | > 100 µM | > 100 µM |
| CCCOc1ccc(/C=C/C2=[N+](CCO)CCO2)cc1 | > 100 µM | > 100 µM | > 100 µM | > 100 µM | > 100 µM | > 100 µM | > 100 µM | > 100 µM | > 100 µM | > 100 µM | > 100 µM | > 100 µM | > 100 µM | > 100 µM |
| CC(C)CC(=O)OC[n+]1cccc(-c2c(COC(=O)NC(C)C)c(COC(=O)NC(C)C)c3n2CCC3)c1 | > 100 µM | > 100 µM | > 100 µM | > 100 µM | 49.2 µM | 73.9 µM | > 100 µM | > 100 µM | > 100 µM | > 100 µM | > 100 µM | 91.6 µM | > 100 µM | > 100 µM |
| NC(=O)CC1(O)C=CC(=O)C=C1 | > 100 µM | > 100 µM | > 100 µM | > 100 µM | > 100 µM | > 100 µM | > 100 µM | > 100 µM | > 100 µM | > 100 µM | > 100 µM | > 100 µM | > 100 µM | > 100 µM |
| CCC1=NC(N/N=C/c2ccccc2O)=N/C1=C\c1ccccc1O | > 76.1 µM | 53.8 µM | > 100 µM | 29.5 µM | 21 µM | > 100 µM | > 100 µM | > 100 µM | > 69.2 µM | 66.2 µM | > 66.1 µM | 20.4 µM | 12.6 µM | > 100 µM |
| COc1ccc2cc(CNCCCN3CCN(CCCNCc4ccc5cc(OC)ccc5c4)CC3)ccc2c1 | 2.85 µM | 0.577 µM | 3.34 µM | 3.19 µM | 3.81 µM | 3.2 µM | 3.13 µM | 3.09 µM | 3.21 µM | 3.42 µM | 2.14 µM | 3.14 µM | 3.02 µM | 2.6 µM |
| COC(=O)C1=C(C(=O)OC)C(C(=O)c2ccccc2)N2N=C(c3ccc(Cl)cc3)C=CC12 (configuration not stated) | > 100 µM | 80.1 µM | > 100 µM | > 100 µM | 43.5 µM | > 100 µM | > 100 µM | > 100 µM | > 100 µM | > 100 µM | > 100 µM | > 100 µM | > 100 µM | > 100 µM |
| CC1=CC[C@@]2(C)[C@@H]([C@@H]1C)[C@H]1CC[C@@H]3[C@@]4(C)CC[C@H](O)C(C)(C)[C@@H]4CC[C@@]3(C)[C@]1(C)C[C@@H]2O | > 100 µM | > 100 µM | 43.4 µM | 36 µM | 8.15 µM | > 83.2 µM | 23.1 µM | 13.9 µM | 28.7 µM | > 59 µM | > 74.8 µM | > 100 µM | 45.5 µM | > 78.2 µM |
| CC1(C)C[C@H]2C3=CC[C@@H]4[C@@]5(C)CC[C@H](O)C(C)(C)[C@@H]5CC[C@@]4(C)[C@]3(C)C[C@@H](O)[C@@]23C[C@@H]1OC3=O | > 100 µM | > 100 µM | > 100 µM | > 100 µM | > 100 µM | > 100 µM | > 100 µM | > 100 µM | > 100 µM | > 100 µM | > 100 µM | > 100 µM | > 100 µM | > 100 µM |
| CC(C)[Si](OCC/C=C/C1CCC(=O)C1C(O)C1CCCCC1)(C(C)C)C(C)C (configuration not stated) | 34.2 µM | 32.8 µM | 31.8 µM | 27.9 µM | 25.3 µM | 28.5 µM | 30.9 µM | 29 µM | 28.8 µM | 26.9 µM | 30 µM | 30.2 µM | 30.9 µM | 33.4 µM |
| NC(=Nc1ccc(Cl)c(Cl)c1)c1ccccc1N | > 100 µM | 39.3 µM | > 100 µM | > 100 µM | 32.6 µM | > 100 µM | > 100 µM | 52.2 µM | > 100 µM | 86.8 µM | > 100 µM | > 100 µM | > 100 µM | > 100 µM |
| Cc1ccc2nc(CN3CCCCC3)cc(=O)n2c1 | > 100 µM | > 100 µM | > 100 µM | > 100 µM | > 100 µM | > 100 µM | > 100 µM | > 100 µM | > 100 µM | > 100 µM | > 100 µM | > 100 µM | > 100 µM | > 100 µM |
| COC(=O)C(Cc1ccccc1)C(=O)NC(CNC(=O)OCc1ccccc1)C(=O)OCc1ccccc1 (configuration not stated) | > 100 µM | 50.2 µM | > 100 µM | > 100 µM | 72.3 µM | > 87.2 µM | > 100 µM | 44 µM | > 100 µM | 97.4 µM | > 100 µM | > 94.4 µM | 48.7 µM | > 100 µM |
| Nc1ccccc1C(=O)NNC(=O)c1ccccc1N | > 100 µM | > 100 µM | > 100 µM | > 100 µM | > 100 µM | > 100 µM | > 100 µM | > 100 µM | > 100 µM | > 100 µM | > 100 µM | > 100 µM | > 100 µM | > 100 µM |
| CNC(=O)C(C)NC(=O)C(Cc1ccccc1)NC(=O)OC(C)(C)C (configuration not stated) | > 100 µM | > 100 µM | > 100 µM | > 100 µM | > 100 µM | > 100 µM | > 100 µM | > 100 µM | > 100 µM | > 100 µM | > 100 µM | > 100 µM | > 100 µM | > 100 µM |
| CCN(CC)CCN1CCN=c2c3cc(OC)ccc3n3cnc4ccc1c2c43 | 0.847 µM | 1.3 µM | 2.32 µM | 3.61 µM | 3.86 µM | 2.23 µM | 2.74 µM | 3.51 µM | 2.26 µM | 2.18 µM | 2.45 µM | 4.42 µM | 3.26 µM | 5.77 µM |
